{"source": "patent US20260109731A1", "about": "“NE[…] USE THEREOF” (HUNAN MINGRUI PHARMACEUTICAL CO., LTD., priority 2023, published 2026)", "key": {"[1]": {"experiment": "Pharmacokinetic analysis of oral gavage administration in female rats", "settings": "12 mg/kg", "method": "(§1) • Female SD rats (body weight: 200 g to 220 g) were purchased from BEIJING HFK BIOSCIENCE CO., LTD.\n60 female SD rats were divided into two groups (Aoral and Boral), with 30 rats per group (5 rats per blood collection time point). The drugs Aoral and Boral were administered via oral gavage administration at 12 mg/kg each (about 1.6 mL of drug solution). Blood was collected from the orbital venous plexus at each time point (5 min, 30 min, 1 h, 2 h, 4 h, and 8 h) after administration, respectively, anticoagulated with heparin, and centrifuged, and then the plasma was separated and stored at −80° C. for later testing. At 8 h after blood collection, the animals were sacrificed, and the brain and Liver tissues were taken and stored at −80° C. for later testing.\n(§2) 100 μL of plasma sample, 10 μL of internal standard solution (100 ng/mL testosterone D-3 solution), and 310 μL of acetonitrile were accurately measured, uniformly mixed by vortexing, and centrifuged (14000 rpm, 4° C.), and a resulting supernatant was taken and detected using UPLC-MS/MS (the analysis method was the same as that in pharmacokinetic analysis in mice).\n(§3) About 100 mg of brain or liver tissue sample was taken, and accurately weighed. 100 μL of water and 400 μL acetonitrile were accurately added thereto, and a resulting mixture was subjected to homogenization. 100 μL of brain or liver tissue homogenate, 10 μL of internal standard solution (100 ng/mL testosterone D-3 solution), and 310 μL of acetonitrile were accurately measured, uniformly mixed by vortexing, and centrifuged (14000 rpm, 4° C.), and a resulting supernatant was taken and detected using UPLC-MS/MS (the analysis method was the same as that in pharmacokinetic analysis in mice)."}, "[2]": {"experiment": "In vitro phase I metabolic stability in male SD rat hepatic microsomes", "assay_type": "in vitro ADME", "settings": "male SD rat hepatic microsomes", "method": "Phase I metabolic stability kit (purchased from HUIZHI HEYUAN BIOTECHNOLOGY (BEIJING) CO., LTD), with the following components of the product:\nPositive substrate testosterone solution (10 mM): diluted with acetonitrile to prepare a 200 μM solution for later use; stop solution & internal standard (testosterone-D3): dissolved with acetonitrile to prepare a 5 ng/mL solution for later use.\n• 1) all components of the kit were thawed in an ice bath and placed on ice for later use; • 2) an incubation system (taking 200 μL system as an example) was prepared:\n• 3) 160 μL of pre-incubation solution B was added into the centrifuge tube containing 40 μL of pre-incubation solution A, uniform mixing was performed by pipetting three times, and the resulting mixture was immediately placed in a water bath at 37° C. for incubation and timing was started; • 4) at predetermined incubation time points (0, 5, 10, 15, 30, 45, 60 minutes), the incubation solution was quantitatively taken out, and 200 μL of stop solution (5 ng/mL testosterone-D3 in acetonitrile, pre-chilled at 4° C.) was added to terminate the reaction (stop solution volume: incubation system volume=1:1). Experimental samples were prepared in triplicate at each time point.\nTo verify the validity of the experiment, a positive control group was established concurrently in the whole experiment to evaluate whether the incubation system functioned properly, with the preparation method as follows: the compound to be tested was replaced with the positive substrate testosterone (200 μM in acetonitrile) from the phase I metabolic stability kit, and the other components of the incubation system and experimental method were the same as those of the experimental group.\nThe ratio of the chromatographic peak area of the compound to be tested to the chromatographic peak area of the testosterone-D3 (internal standard) was used as the calculated data. By taking the peak area ratio at time zero of the test compound as 100%, the remaining percentages were calculated by comparing the peak area ratio at each time point with the peak area ratio at time zero, and the natural logarithms of the remaining percentages of the substrate at each time point are then subjected to linear regression against the incubation times to obtain the slope k. Therefore, the in vitro metabolic half-life (T1/2) and intrinsic clearance (CLint) were calculated using the following formulas: […]"}, "[3]": {"experiment": "Pharmacokinetic analysis of tail vein administration in female rats", "settings": "3 mg/kg", "method": "as §1\n60 female SD rats were divided into two groups (Aintravenous and Bintravenous), with 30 rats per group (5 rats per blood collection time point). The drugs Aintravenous and Bintravenous were administered via tail vein injection at 3 mg/kg each (about 1.2 mL of drug solution). Blood was collected from the orbital venous plexus at time points (5 min, 30 min, 1 h, 2 h, 4 h, and 8 h) after administration, respectively, anticoagulated with heparin, and centrifuged, and then the plasma was separated and stored at −80° C. for later testing. At 8 h after blood collection, the animals were sacrificed, and the brain and liver tissues were taken and stored at −80° C. for later testing.\nas §2, §3"}, "[4]": {"experiment": "Pharmacokinetic analysis of oral administration to male rats", "assay_type": "in vivo", "settings": "oral gavage 12 mg/kg; for Blood drug concentration: individual rats 1-7; for concentration at 0.5 h / concentration at 1 h / concentration at 2 h / concentration at 3 h / concentration at 4 h / concentration at 5 h / concentration at 6 h / concentration at 8 h / concentration at 10 h / concentration at 12 h / concentration at 18 h / concentration at 24 h: male, SD, rat, plasma, po, 12 mg/kg", "from_the_text": "Male SD rats (body weight: 230 g to 250 g) were purchased from BEIJING HFK BIOSCIENCE CO., LTD."}, "[5]": {"settings": "female SD rats, tail vein, 8 h after administration"}}, "note": "Where two headings read alike, the source gives them in different places.", "data": [{"smiles": "CC(=O)[C@H]1CC[C@H]2[C@@H]3CC[C@H]4C[C@H](O)CC[C@]4(C)[C@H]3CC[C@]12C", "note": "[Allopregnanolone, 5α-pregnan-3α-ol-20-one, reference compound]", "values": [{"measurement": "level of the administered compound in the liver tissue (for compound 1 the sentence prints: in the plasma)", "setting": "[1]; female SD rats, oral administration, 8 h after administration", "value": "undetectable"}, {"measurement": "level in plasma and brain tissue at all time points", "setting": "[1]; female SD rats, oral gavage", "value": "undetectable"}, {"measurement": "bioavailability", "setting": "[1]; female, SD, rat, plasma, oral", "value": 0, "unit": "%"}, {"measurement": "half-life", "setting": "[2]; liver microsomes, NADPH system, 37° C., read-out: T1/2 (in vitro metabolic half-life)", "value": 2.17, "unit": "min"}, {"measurement": "microsomal CLint", "setting": "[2]; liver microsomes, read-out: intrinsic clearance", "value": 639, "unit": "µL/min/mg"}, {"measurement": "In vitro CLint", "setting": "[2]; 37° C.", "value": 639.28, "unit": "μL/min/mg protein"}, {"measurement": "k (slope of ln remaining percentage against incubation time)", "setting": "[2]; 37° C.", "value": "−0.3196"}, {"measurement": "level of the administered compound in the liver", "setting": "[3]; female SD rats, intravenous (tail vein), 8 h after administration", "value": "undetectable"}, {"measurement": "concentration in brain tissue", "setting": "[3]; [5]", "value": "undetectable"}, {"measurement": "concentration in plasma", "setting": "[3]; [5]", "value": "undetectable"}, {"measurement": "clearance", "setting": "[3]; female, SD, rat, plasma, iv", "value": 109, "unit": "mL/min/kg"}, {"measurement": "half-life", "setting": "[3]; female, SD, rat, plasma, iv", "value": 52.2, "unit": "min"}, {"measurement": "Blood drug concentration", "setting": "[4]; male SD rats, 0.5 h", "value": 0, "unit": "ng/mL"}, {"measurement": "level in the plasma at all time points", "setting": "[4]; male SD rats, 30 min to 24 h", "value": "undetectable"}, {"measurement": "Blood drug concentration", "setting": "[4]; male SD rats, 1 h", "value": 0, "unit": "ng/mL"}, {"measurement": "Blood drug concentration", "setting": "[4]; male SD rats, 2 h", "value": 0, "unit": "ng/mL"}, {"measurement": "Blood drug concentration", "setting": "[4]; male SD rats, 3 h", "value": 0, "unit": "ng/mL"}, {"measurement": "Blood drug concentration", "setting": "[4]; male SD rats, 4 h", "value": 0, "unit": "ng/mL"}, {"measurement": "Blood drug concentration", "setting": "[4]; male SD rats, 5 h", "value": 0, "unit": "ng/mL"}, {"measurement": "Blood drug concentration", "setting": "[4]; male SD rats, 6 h", "value": 0, "unit": "ng/mL"}, {"measurement": "Blood drug concentration", "setting": "[4]; male SD rats, 8 h", "value": 0, "unit": "ng/mL"}, {"measurement": "Blood drug concentration", "setting": "[4]; male SD rats, 10 h", "value": 0, "unit": "ng/mL"}, {"measurement": "Blood drug concentration", "setting": "[4]; male SD rats, 12 h", "value": 0, "unit": "ng/mL"}, {"measurement": "Blood drug concentration", "setting": "[4]; male SD rats, 18 h", "value": 0, "unit": "ng/mL"}, {"measurement": "Blood drug concentration", "setting": "[4]; male SD rats, 24 h", "value": 0, "unit": "ng/mL"}, {"measurement": "concentration at 0.5 h", "setting": "[4]; 0.5 h, individual rats 1-7, read-out: Blood drug concentration", "value": 0, "unit": "ng/mL"}, {"measurement": "concentration at 0.5 h", "setting": "[4]; 0.5 h, mean of 7 rats, read-out: Blood drug concentration, Mean value", "value": 0, "unit": "ng/mL"}, {"measurement": "concentration at 1 h", "setting": "[4]; 1 h, individual rats 1-7, read-out: Blood drug concentration", "value": 0, "unit": "ng/mL"}, {"measurement": "concentration at 1 h", "setting": "[4]; 1 h, mean of 7 rats, read-out: Blood drug concentration, Mean value", "value": 0, "unit": "ng/mL"}, {"measurement": "concentration at 2 h", "setting": "[4]; 2 h, individual rats 1-7, read-out: Blood drug concentration", "value": 0, "unit": "ng/mL"}, {"measurement": "concentration at 2 h", "setting": "[4]; 2 h, mean of 7 rats, read-out: Blood drug concentration, Mean value", "value": 0, "unit": "ng/mL"}, {"measurement": "concentration at 3 h", "setting": "[4]; 3 h, individual rats 1-7, read-out: Blood drug concentration", "value": 0, "unit": "ng/mL"}, {"measurement": "concentration at 3 h", "setting": "[4]; 3 h, mean of 7 rats, read-out: Blood drug concentration, Mean value", "value": 0, "unit": "ng/mL"}, {"measurement": "concentration at 4 h", "setting": "[4]; 4 h, individual rats 1-7, read-out: Blood drug concentration", "value": 0, "unit": "ng/mL"}, {"measurement": "concentration at 4 h", "setting": "[4]; 4 h, mean of 7 rats, read-out: Blood drug concentration, Mean value", "value": 0, "unit": "ng/mL"}, {"measurement": "concentration at 5 h", "setting": "[4]; 5 h, individual rats 1-7, read-out: Blood drug concentration", "value": 0, "unit": "ng/mL"}, {"measurement": "concentration at 5 h", "setting": "[4]; 5 h, mean of 7 rats, read-out: Blood drug concentration, Mean value", "value": 0, "unit": "ng/mL"}, {"measurement": "concentration at 6 h", "setting": "[4]; 6 h, individual rats 1-7, read-out: Blood drug concentration", "value": 0, "unit": "ng/mL"}, {"measurement": "concentration at 6 h", "setting": "[4]; 6 h, mean of 7 rats, read-out: Blood drug concentration, Mean value", "value": 0, "unit": "ng/mL"}, {"measurement": "concentration at 8 h", "setting": "[4]; 8 h, individual rats 1-7, read-out: Blood drug concentration", "value": 0, "unit": "ng/mL"}, {"measurement": "concentration at 8 h", "setting": "[4]; 8 h, mean of 7 rats, read-out: Blood drug concentration, Mean value", "value": 0, "unit": "ng/mL"}, {"measurement": "concentration at 10 h", "setting": "[4]; 10 h, individual rats 1-7, read-out: Blood drug concentration", "value": 0, "unit": "ng/mL"}, {"measurement": "concentration at 10 h", "setting": "[4]; 10 h, mean of 7 rats, read-out: Blood drug concentration, Mean value", "value": 0, "unit": "ng/mL"}, {"measurement": "concentration at 12 h", "setting": "[4]; 12 h, individual rats 1-7, read-out: Blood drug concentration", "value": 0, "unit": "ng/mL"}, {"measurement": "concentration at 12 h", "setting": "[4]; 12 h, mean of 7 rats, read-out: Blood drug concentration, Mean value", "value": 0, "unit": "ng/mL"}, {"measurement": "concentration at 18 h", "setting": "[4]; 18 h, individual rats 1-7, read-out: Blood drug concentration", "value": 0, "unit": "ng/mL"}, {"measurement": "concentration at 18 h", "setting": "[4]; 18 h, mean of 7 rats, read-out: Blood drug concentration, Mean value", "value": 0, "unit": "ng/mL"}, {"measurement": "concentration at 24 h", "setting": "[4]; 24 h, individual rats 1-7, read-out: Blood drug concentration", "value": 0, "unit": "ng/mL"}, {"measurement": "concentration at 24 h", "setting": "[4]; 24 h, mean of 7 rats, read-out: Blood drug concentration, Mean value", "value": 0, "unit": "ng/mL"}]}]}
